# What was measured:
# Assay in all cases: Test D controlled growth environment herbicide test, pre- and postemergence
# Type in all cases: in vivo
# [1] = test system: barley, winter (winter barley, Hordeum vulgare)
# In short: (§1)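 Rating is visual, 0–100 scale (100 = complete control), made against untreated plants 14–21 d after treatment in controlled growth conditions. Postemergence sprays went onto 1- to 4-leaf plants in peat medium; preemergence sprays onto silt loam after sowing; formulation included a surfactant.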
# [2] = test system: blackgrass (Alopecurus myosuroides)
# In short: as §1
# [3] = test system: bromegrass, downy (downy bromegrass, Bromus tectorum)
# In short: as §1
# [4] = test system: buckwheat, wild (wild buckwheat, Polygonum convolvulus)
# In short: as §1
# [5] = test system: canarygrass (Phalaris minor)
# In short: as §1
# [6] = test system: chamomile (scentless chamomile, Matricaria inodora)
# In short: as §1
# [7] = test system: chickweed (common chickweed, Stellaria media)
# In short: as §1
# [8] = test system: field poppy (Papaver rhoeas)
# In short: as §1
# [9] = test system: galium (catchweed bedstraw, Galium aparine)
# In short: as §1
# [10] = test system: lambsquarters (Chenopodium album)
# In short: as §1
# [11] = test system: oilseed rape (Brassica napus)
# In short: as §1
# [12] = test system: ryegrass, Italian (Italian ryegrass, Lolium multiflorum)
# In short: as §1
# [13] = test system: speedwell (bird's-eye speedwell, Veronica persica)
# In short: as §1
# [14] = Postemergence, 31 g ai/ha, scale 0 to 100 (0 no effect, 100 complete control)
# [15] = Postemergence, 125 g ai/ha, visual rating on scale 0 (no effect) to 100 (complete control), 14 to 21 d
# [16] = Postemergence, 250 g ai/ha, scale 0 to 100 (0 no effect, 100 complete control)
# [17] = Preemergence, 62 g ai/ha, scale 0 to 100 (0 no effect, 100 complete control)
# [18] = Preemergence, 125 g ai/ha, scale 0 to 100 (0 no effect, 100 complete control)
# [19] = Preemergence, 250 g ai/ha, scale 0 to 100 (0 no effect, 100 complete control)
# [20] = postemergence, 62 g ai/ha, scale 0 to 100, 0 no effect, 100 complete control
compound,measurement,setting,value
CCOC(=O)Oc1c(C)nn(C)c(=O)c1-c1c(C)sc2c(C)cc(C)cc12 [Compound 83],"Barley, Winter plant response rating",[1]; [14],0
same,"Plant response rating, Barley, Winter",[1]; [15],0
same,"Plant response rating, Barley, Winter",[1]; [16],15
same,"Plant response rating (scale of 0 to 100), Barley, Winter","[1]; Preemergence, 31 g ai/ha",0
same,"Plant response rating, Barley, Winter",[1]; [17],0
same,"Plant response rating, Barley, Winter",[1]; [18],0
same,"Plant response rating, Barley, Winter",[1]; [19],40
same,"Plant response rating, Barley, Winter",[1]; [20],0
same,Blackgrass plant response rating,[2]; [14],65
same,"Plant response rating, Blackgrass",[2]; [15],75
same,"Plant response rating, Blackgrass",[2]; [16],80
same,"Plant response rating (scale of 0 to 100), Blackgrass","[2]; Preemergence, 31 g ai/ha",20
same,"Plant response rating, Blackgrass",[2]; [17],60
same,"Plant response rating, Blackgrass",[2]; [18],70
same,"Plant response rating, Blackgrass",[2]; [19],85
same,"Plant response rating, Blackgrass",[2]; [20],70
same,"Bromegrass, Downy plant response rating",[3]; [14],25
same,"Plant response rating, Bromegrass, Downy",[3]; [15],50
same,"Plant response rating, Bromegrass, Downy",[3]; [16],70
same,"Plant response rating (scale of 0 to 100), Bromegrass, Downy","[3]; Preemergence, 31 g ai/ha",20
same,"Plant response rating, Bromegrass, Downy",[3]; [17],30
same,"Plant response rating, Bromegrass, Downy",[3]; [18],60
same,"Plant response rating, Bromegrass, Downy",[3]; [19],40
same,"Plant response rating, Bromegrass, Downy",[3]; [20],35
same,"Buckwheat, Wild plant response rating",[4]; [14],100
same,"Plant response rating, Buckwheat, Wild",[4]; [15],100
same,"Plant response rating, Buckwheat, Wild",[4]; [16],100
same,"Plant response rating (scale of 0 to 100), Buckwheat, Wild","[4]; Preemergence, 31 g ai/ha",0
same,"Plant response rating, Buckwheat, Wild",[4]; [17],0
same,"Plant response rating, Buckwheat, Wild",[4]; [18],0
same,"Plant response rating, Buckwheat, Wild",[4]; [19],25
same,"Plant response rating, Buckwheat, Wild",[4]; [20],100
same,Canarygrass plant response rating,[5]; [14],50
same,"Plant response rating, Canarygrass",[5]; [15],80
same,"Plant response rating, Canarygrass",[5]; [16],90
same,"Plant response rating (scale of 0 to 100), Canarygrass","[5]; Preemergence, 31 g ai/ha",65
same,"Plant response rating (scale of 0 to 100), Canarygrass","[5]; Preemergence, 62 g ai/ha",85
same,"Plant response rating, Canarygrass",[5]; [18],90
same,"Plant response rating, Canarygrass",[5]; [19],100
same,"Plant response rating, Canarygrass",[5]; [20],75
same,Chamomile plant response rating,[6]; [14],95
same,"Plant response rating, Chamomile",[6]; [15],100
same,"Plant response rating, Chamomile",[6]; [16],100
same,"Plant response rating, Chamomile",[6]; [20],100
same,Chickweed plant response rating,[7]; [14],100
same,"Plant response rating, Chickweed",[7]; [15],100
same,"Plant response rating, Chickweed",[7]; [16],100
same,"Plant response rating (scale of 0 to 100), Chickweed","[7]; Preemergence, 31 g ai/ha",100
same,"Plant response rating (scale of 0 to 100), Chickweed","[7]; Preemergence, 62 g ai/ha",100
same,"Plant response rating, Chickweed",[7]; [18],100
same,"Plant response rating, Chickweed",[7]; [19],100
same,"Plant response rating, Chickweed",[7]; [20],100
same,Field Poppy plant response rating,[8]; [14],100
same,"Plant response rating, Field Poppy",[8]; [15],100
same,"Plant response rating, Field Poppy",[8]; [16],100
same,"Plant response rating (scale of 0 to 100), Field Poppy","[8]; Preemergence, 31 g ai/ha",100
same,"Plant response rating (scale of 0 to 100), Field Poppy","[8]; Preemergence, 62 g ai/ha",100
same,"Plant response rating, Field Poppy",[8]; [18],100
same,"Plant response rating, Field Poppy",[8]; [19],100
same,"Plant response rating, Field Poppy",[8]; [20],100
same,Galium plant response rating,[9]; [14],100
same,"Plant response rating, Galium",[9]; [15],100
same,"Plant response rating, Galium",[9]; [16],100
same,"Plant response rating (scale of 0 to 100), Galium","[9]; Preemergence, 31 g ai/ha",0
same,"Plant response rating (scale of 0 to 100), Galium","[9]; Preemergence, 62 g ai/ha",25
same,"Plant response rating, Galium",[9]; [18],40
same,"Plant response rating, Galium",[9]; [19],85
same,"Plant response rating, Galium",[9]; [20],100
same,Lambsquarters plant response rating,[10]; [14],95
same,"Plant response rating, Lambsquarters",[10]; [15],100
same,"Plant response rating, Lambsquarters",[10]; [16],100
same,"Plant response rating (scale of 0 to 100), Lambsquarters","[10]; Preemergence, 31 g ai/ha",95
same,"Plant response rating (scale of 0 to 100), Lambsquarters","[10]; Preemergence, 62 g ai/ha",65
same,"Plant response rating, Lambsquarters",[10]; [18],100
same,"Plant response rating, Lambsquarters",[10]; [19],100
same,"Plant response rating, Lambsquarters",[10]; [20],100
same,Oilseed Rape plant response rating,[11]; [14],65
same,"Plant response rating, Oilseed Rape",[11]; [15],75
same,"Plant response rating, Oilseed Rape",[11]; [16],95
same,"Plant response rating (scale of 0 to 100), Oilseed Rape","[11]; Preemergence, 31 g ai/ha",5
same,"Plant response rating (scale of 0 to 100), Oilseed Rape","[11]; Preemergence, 62 g ai/ha",5
same,"Plant response rating, Oilseed Rape",[11]; [18],10
same,"Plant response rating, Oilseed Rape",[11]; [19],10
same,"Plant response rating, Oilseed Rape",[11]; [20],70
same,"Ryegrass, Italian plant response rating",[12]; [14],80
same,"Plant response rating, Ryegrass, Italian",[12]; [15],90
same,"Plant response rating, Ryegrass, Italian",[12]; [16],90
same,"Plant response rating (scale of 0 to 100), Ryegrass, Italian","[12]; Preemergence, 31 g ai/ha",40
same,"Plant response rating (scale of 0 to 100), Ryegrass, Italian","[12]; Preemergence, 62 g ai/ha",75
same,"Plant response rating, Ryegrass, Italian",[12]; [18],90
same,"Plant response rating, Ryegrass, Italian",[12]; [19],100
same,"Plant response rating, Ryegrass, Italian",[12]; [20],85
same,Speedwell plant response rating,[13]; [14],65
same,"Plant response rating, Speedwell",[13]; [15],75
same,"Plant response rating, Speedwell",[13]; [16],100
same,"Plant response rating (scale of 0 to 100), Speedwell","[13]; Preemergence, 31 g ai/ha",70
same,"Plant response rating (scale of 0 to 100), Speedwell","[13]; Preemergence, 62 g ai/ha",75
same,"Plant response rating, Speedwell",[13]; [18],100
same,"Plant response rating, Speedwell",[13]; [19],100
same,"Plant response rating, Speedwell",[13]; [20],70
